Data as given in patent publication US20080312164A1 (priority 2006, published 2008).

Legend:
MCF7 cells [1] = test: Calcein AM cytotoxicity assay, MCF7; assay type: cell-based; settings: Homo sapiens; MCF7, Calcein AM, 72 h; read-out: IC50
Text: (§1) Five serial 1:2 dilutions were made with anhydrous DMSO at 100× the final concentration used in the assay.

SK-OV-3 cells [2] = test: Cell Titer-Glo cytotoxicity assay, SK-OV-3; assay type: cell-based; settings: Homo sapiens; SK-OV-3, Cell Titer-Glo, 72 h; read-out: IC50
Text: as §1

HCT-116 cells [3] = test: Calcein AM cytotoxicity assay, HCT-116; assay type: cell-based; settings: Homo sapiens; HCT-116, Calcein AM, 72 h; read-out: IC50
Text: as §1

SK-OV-3 cells [4] = test: Calcein AM cytotoxicity assay, SK-OV-3; assay type: cell-based; settings: Homo sapiens; SK-OV-3, Calcein AM, 72 h; read-out: IC50
Text: as §1

NCI-H460 cells [5] = test: Cell Titer-Glo cytotoxicity assay, NCI-H460; assay type: cell-based, human; settings: Homo sapiens; NCI-H460, Cell Titer-Glo, 72 h; read-out: IC50
Text: as §1

Hep3B cells [6] = test: Cell Titer-Glo cytotoxicity assay, Hep3B; assay type: cell-based; settings: Homo sapiens, Cell Titer-Glo, 72 h, read-out: IC50
Text: as §1

NCI/ADR RES cells [7] = test: Calcein AM cytotoxicity assay, NCI/ADR-RES; assay type: cell-based; settings: Homo sapiens, Calcein AM, 72 h, read-out: IC50
Text: as §1

NCI-H460 cells [8] = test: Calcein AM cytotoxicity assay, NCI-H460; assay type: cell-based; settings: Homo sapiens; NCI-H460, Calcein AM, 72 h; read-out: IC50
Text: as §1

MCF7 cells [9] = test: Cell Titer-Glo cytotoxicity assay, MCF7; assay type: cell-based, human; settings: Homo sapiens; MCF7, Cell Titer-Glo, 72 h; read-out: IC50
Text: as §1

HCT-116 cells [10] = test: Cell Titer-Glo cytotoxicity assay, HCT-116; assay type: cell-based; settings: Homo sapiens; HCT-116, Cell Titer-Glo, 72 h; read-out: IC50
Text: as §1

Hep3B cells [11] = test: Calcein AM cytotoxicity assay, Hep3B; assay type: cell-based; settings: Homo sapiens, Calcein AM, 72 h, read-out: IC50
Text: as §1

Du145 cells [12] = test: Cell Titer-Glo cytotoxicity assay, Du145; assay type: cell-based; settings: Homo sapiens, DU-145; Du145, Cell Titer-Glo, 72 h; read-out: IC50
Text: as §1

[13] = tested on: NmuMG mouse mammary normal epithelial cells; test: Calcein AM cytotoxicity assay, NmuMG; assay type: cell-based; settings: Epithelial cell, NmuMG, Calcein AM, 72 h, read-out: IC50
Text: as §1

HT-29 cells = test: MTT cytotoxicity assay, HT-29; assay type: cell-based; settings: Homo sapiens; HT-29, MTT, 24 h; read-out: IC50
SF-268 cells [14] = test: Calcein AM cytotoxicity assay, SF-268; assay type: cell-based; settings: Homo sapiens; SF-268, Calcein AM, 72 h; read-out: IC50
Text: as §1

SF-268 cells [15] = test: Cell Titer-Glo cytotoxicity assay, SF-268; assay type: cell-based; settings: Homo sapiens; SF-268, Cell Titer-Glo, 72 h; read-out: IC50
Text: as §1

Du145 cells [16] = test: Calcein AM cytotoxicity assay, Du145; assay type: cell-based; settings: Homo sapiens, DU-145; Du145, Calcein AM, 72 h; read-out: IC50
Text: as §1

[17] = tested on: NmuMG mouse mammary normal epithelial cells; test: Cell Titer-Glo cytotoxicity assay, NmuMG; assay type: cell-based; settings: Mus musculus, Epithelial cell; NmuMG, Cell Titer-Glo, 72 h; read-out: IC50
Text: as §1

human cancer cell lines = test: Cytotoxicity across the panel of human cancer cell lines (average, high-throughput assays); assay type: cell-based; settings: for IC50: average across eight human cancer cell lines, MTT (HT-29) values excluded, read-out: Cancerous Average IC50 / Average IC50 in Cancer Cell Lines
Text: as §1

NCI/ADR RES cells [18] = test: Cell Titer-Glo cytotoxicity assay, NCI/ADR-RES; assay type: cell-based, human; settings: Homo sapiens; NCI/ADR-RES, Cell Titer-Glo, 72 h; read-out: IC50
Text: as §1

SMILES: S=C=NCc1ccc(-c2ccccc2)cc1 [Compound 35, 1-(isothiocyanatomethyl)-4-phenylbenzene]
- IC50 (MCF7 cells [1]): 2.91 µM
- IC50 (SK-OV-3 cells [2]): 4.65 µM
- IC50 (HCT-116 cells [3]): 7.54 µM
- IC50 (SK-OV-3 cells [4]): < 3.13 µM
- IC50 (NCI-H460 cells [5]): 15 µM
- IC50 (Hep3B cells [6]): 4.51 µM
- IC50 (NCI/ADR RES cells [7]): 6.73 µM
- IC50 (NCI-H460 cells [8]): 10.5 µM
- IC50 (MCF7 cells [9]): 6.72 µM
- IC50 (HCT-116 cells [10]): 4.83 µM
- IC50 (Hep3B cells [11]): 4.33 µM
- IC50 (Du145 cells [12]): 11 µM
- IC50 [13]: < 12.5 µM
- IC50 (HT-29 cells): > 50 µM
- IC50 (SF-268 cells [14]): 6.26 µM
- IC50 (SF-268 cells [15]): 4.4 µM
- IC50 (Du145 cells [16]): 5.49 µM
- IC50 [17]: 65.7 µM
- further fold increase in potency from multiple phenyl rings (human cancer cell lines; average IC50 compared with single-ring 23 and 38): ~2 fold
- IC50 (human cancer cell lines): 7.89 µM
- IC50 (NCI/ADR RES cells [18]): 12.1 µM

SMILES: S=C=NCc1ccccc1 [Compound 23, 1-(isothiocyanatomethyl)benzene]
- IC50 (MCF7 cells [1]): 16 µM
- IC50 (SK-OV-3 cells [2]): 8.86 µM
- IC50 (HCT-116 cells [3]): 11.5 µM
- IC50 (SK-OV-3 cells [4]): 7.18 µM
- IC50 (NCI-H460 cells [5]): 14.5 µM
- IC50 (Hep3B cells [6]): 9.7 ± 0.37 µM
- IC50 (NCI/ADR RES cells [7]): 15.5 µM
- IC50 (NCI-H460 cells [8]): 22.9 µM
- IC50 (MCF7 cells [9]): 10.6 µM
- IC50 (HCT-116 cells [10]): 3.19 µM
- IC50 (Hep3B cells [11]): 22.5 µM
- IC50 (Du145 cells [12]): 4.64 µM
- IC50 [13]: < 12.5 µM
- IC50 (HT-29 cells): 31.4 µM
- IC50 (SF-268 cells [14]): 11.5 µM
- IC50 (SF-268 cells [15]): 8.27 µM
- IC50 (Du145 cells [16]): 5.37 µM
- IC50 [17]: 15.4 µM
- fold increase in potency versus fully-saturated 18 (human cancer cell lines; average IC50 compared): > 3 fold
- IC50 (human cancer cell lines): 9.47 µM
- IC50 (NCI/ADR RES cells [18]): 11.5 ± 0.77 µM

SMILES: S=C=NCc1ccccc1Br [Compound 25, 1-bromo-2-(isothiocyanatomethyl)benzene]
- IC50 (MCF7 cells [1]): 6.76 µM
- IC50 (SK-OV-3 cells [2]): 5.01 µM
- IC50 (HCT-116 cells [3]): 19.6 µM
- IC50 (SK-OV-3 cells [4]): 6.32 µM
- IC50 (NCI-H460 cells [5]): 17.3 µM
- IC50 (Hep3B cells [6]): 16.3 µM
- IC50 (NCI/ADR RES cells [7]): > 20 µM
- IC50 (NCI-H460 cells [8]): 19.4 µM
- IC50 (MCF7 cells [9]): 2.73 µM
- IC50 (HCT-116 cells [10]): 3.88 µM
- IC50 (Hep3B cells [11]): 5.67 µM
- IC50 (Du145 cells [12]): 8.64 µM
- IC50 [13]: 11.3 µM
- IC50 (HT-29 cells): 26.9 µM
- IC50 (SF-268 cells [14]): 6 µM
- IC50 (SF-268 cells [15]): 7.11 µM
- IC50 (Du145 cells [16]): 3.99 µM
- IC50 [17]: 4.6 µM
- IC50 (human cancer cell lines): 10.1 µM
- IC50 (NCI/ADR RES cells [18]): 20.1 µM
